Data reported in PubChem BioAssay (NCI).
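Test compounds were applied to cells in 96-well plates for 48 hours at 5 doses. GI50 = concentration required for 50% inhibition of growth. TGI: concentration producing complete growth inhibition.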

Legend:
Assay in all cases: inhibition of tumour cell growth, NCI panel, 48 h
MDA-MB-435 = tested on: MDA-MB-435
T-47D breast = tested on: T-47D breast
MDA-MB-231 breast = tested on: MDA-MB-231 breast
NCI/ADR-RES ovarian = tested on: NCI/ADR-RES ovarian
DLD-1 colon = tested on: DLD-1 colon
DMS 273 small cell lung = tested on: DMS 273 small cell lung
RXF-631 renal = tested on: RXF-631 renal
DMS 114 small cell lung = tested on: DMS 114 small cell lung
MDA-N = tested on: MDA-N

Row | Compound | GI50 (MDA-MB-435) [µM] | TGI (MDA-MB-435) [µM] | GI50 (T-47D breast) [µM] | TGI (T-47D breast) [µM] | GI50 (MDA-MB-231 breast) [µM] | TGI (MDA-MB-231 breast) [µM] | GI50 (NCI/ADR-RES ovarian) [µM] | TGI (NCI/ADR-RES ovarian) [µM] | TGI (DLD-1 colon) [µM] | TGI (DMS 273 small cell lung) [µM] | TGI (RXF-631 renal) [µM] | TGI (DMS 114 small cell lung) [µM] | TGI (MDA-N) [µM]
1 | COc1cc(C(=O)n2nc(N3CCN(C)CC3)c3cc(N)ccc32)cc(OC)c1OC | 1.91 | 5.4 | > 100 | > 100 | 2.92 | 21.6 | 4.2 | > 100 | – | – | – | – | –
2 | CC/C(=C(\CC)c1ccc(OCCN(CC)CC)cc1)c1ccc(OCCN(CC)CC)cc1 | 1.86 | 7.28 | 2.65 | 6.73 | 1.76 | 5.82 | 4.89 | 17.9 | – | – | – | – | –
3 | Cn1cc(C2=C(c3c4n(c5ccccc35)CCC(CN)CC4)C(=O)NC2=O)c2ccccc21 (stereo not drawn) | 3.35 | 6.76 | 4.52 | 9.87 | 3.25 | 7.13 | > 25 | > 25 | – | – | – | – | –
4 | O=C1/C(=C/c2ccccc2)CCCC/C1=C\c1ccccc1 | – | – | – | – | – | – | – | – | > 100 | > 100 | > 100 | > 100 | –
5 | CC(C)=CCC/C(C)=C/CC/C(=C/COP(=O)(OCc1ccc([N+](=O)[O-])o1)N(C)CCCCCl)C(C)(C)C (stereo not drawn) | 10.1 | 30.8 | 16.4 | 51.5 | – | 1.03 | 16.3 | 38.5 | – | – | – | – | –
6 | COc1cc(-c2nc3ccccc3s2)ccc1OCc1nc2n(n1)S(=O)(=O)c1ccccc1N2C | > 100 | > 100 | > 100 | > 100 | > 100 | > 100 | > 100 | > 100 | – | – | – | – | –
7 | COC(=O)C1=CC2OC13CC1CCC3(C2=O)C1(C)C (stereo not drawn) | – | – | – | – | – | – | – | – | – | 24.6 | 28 | 20.3 | –
8 | Nc1ccc(C(=O)NN2C(=O)C(Cl)C2c2ccccc2O)cc1 (stereo not drawn) | – | – | – | – | – | – | – | – | > 100 | > 100 | – | 79.6 | –
9 | O=C(O)CC1(C(=O)O)CCCCC1 | – | > 100 | – | > 100 | – | > 100 | – | > 100 | – | – | – | – | > 100
10 | COc1ccc(F)cc1C(=O)c1cnc(NC2CCN(S(C)(=O)=O)CC2)nc1N | 2.39 | > 25 | 4.49 | > 22.6 | 2.49 | > 25 | 6.26 | > 25 | – | – | – | – | –
11 | CCCCCCCCCCCC(=O)OCC1OC(n2cc(F)c(=O)[nH]c2=O)C(N)C(O)C1O (stereo not drawn) | – | – | – | – | – | – | – | – | > 100 | > 100 | – | > 100 | –
12 | COC(=O)C1=CC2OC1(C)C1(CC1)C2=O (stereo not drawn) | – | – | – | – | – | – | – | – | 37.3 | – | – | – | –
13 | CN(CCO)c1nc2c(c(=O)[nH]1)CNCC2 | – | – | – | – | – | – | – | – | > 100 | > 100 | – | > 100 | –
14 | Cn1c2cccc3nnc4cccc(c4c32)n1C | – | – | – | – | – | – | – | – | > 100 | > 100 | > 100 | > 100 | –
